Measurements published in PMC11286589, “Population pharmacokinetics and exposure–response analyses of SAF-189s in Chinese patients with ALK+/ROS1+ non-small cell lung cancer” (Frontiers in Pharmacology, 2024).
Read-outs that look alike come from different tables or passages of the source.

Assays:
[1] = Exposure–safety analysis (logistic regression); format: in vivo, human; conditions: per increase in exposure (AUCss) of 1 ng∙h mL^–1 d^–1, all patients
Experimental: All studies were conducted in accordance with the Good Clinical Practice guidelines and Declaration of Helsinki. The protocols were approved by the independent ethics committee of each investigation site, and all subjects provided informed consent. The tumor responses were assessed by the IRC based on the Response Evaluation Criteria in Solid Tumors (RECIST) 1.1 conditions. The exposure–efficacy analyses of SAF-189s were conducted based on data from patients in the SAF001 study to explore the relationships between systemic exposure and efficacy endpoints, including the ORR, PFS, and duration of response (DOR). The exposure–safety analyses of SAF-189s were conducted based on data from patients in the SAF001 study to explore the relationships between the systemic exposure and safety endpoints, including the adverse events (AEs) of interest. In these studies, the SAF-189s plasma concentrations were analyzed using validated liquid chromatography tandem mass spectrometry within the assay range of 0.5–150 ng mL^–1.
The exposure–safety relationships were characterized using the exposure metrics to the first occurrence of an event. The AEs of interest selected for analysis included hyperglycemia and proteinuria. The individual post hoc PK parameters from the final PopPK model and the first dosage were used to calculate the Cmin,ss, Cmax,ss, and AUCss at steady state, which were used as the exposure metrics. The exposure–safety analysis was performed using a logistic regression modeling approach.

[2] = system: tumor xenograft models derived from genetically engineered cells overexpressing ALK rearrangements, ROS1+ rearrangements, or crizotinib-resistant ALK and ROS1 …; design: method as in Xia et al., 2021; conditions: tumor xenograft and CNS tumor models; ref Xia et al., 2021; cited from earlier work
[3] = system: ALK+/ROS1+ advanced NSCLC; test: Phase I/II study (SAF001, NCT04237805): tumor response, IRC, RECIST 1.1; format: in vivo, human
Text: A first-in-human phase I/II study (NCT04237805) enrolled patients with advanced ALK+/ROS1+ NSCLC with or without asymptomatic CNS metastases. […] The population PK analysis included data from one phase I study of SAF-189s conducted with healthy subjects (study STL31147; n = 24) and one phase I/II study conducted with Chinese patients having ALK+/ROS1+ advanced NSCLC (study SAF001; n = 299). STL31147 was a single-center, randomized, open-label, two-period (fed and fasting), and two-sequence crossover study on healthy Chinese adults. The volunteers received SAF-189s at a dose of 160 mg orally once in each period, with a washout period of 14 days. Blood samples (3 mL) were collected after each SAF-189s administration at 0 (predose), 1, 2, 3, 4, 6, 8, 10, 12, 24, 48, 72, 120, and 168 h post dosing. SAF001 was a multicenter, open-label, and single-arm phase I/II study to evaluate the safety, tolerability, pharmacokinetics, and antitumor activity of SAF-189s in patients with advanced ALK+ NSCLC (phase I) and ALK+/ROS1+ NSCLC (phase II). In the dose escalation portion, the study treatment included a single-agent 3-day PK run-in period and a continuous treatment period. The dosing regimens were 20, 40, 80, 120, 160, and 210 mg QD for 21 days in 21-day cycles during the continuous treatment period. In phase II, the patients received 80, 120, 160, and 210 mg of SAF-189s (phase IIa) or 160 mg (phase IIb) QD over 21-day cycles. All studies were conducted in accordance with the Good Clinical Practice guidelines and Declaration of Helsinki. The protocols were approved by the independent ethics committee of each investigation site, and all subjects provided informed consent. The tumor responses were assessed by the IRC based on the Response Evaluation Criteria in Solid Tumors (RECIST) 1.1 conditions. The exposure–efficacy analyses of SAF-189s were conducted based on data from patients in the SAF001 study to explore the relationships between systemic exposure and efficacy endpoints, including the ORR, PFS, and duration of response (DOR). The exposure–safety analyses of SAF-189s were conducted based on data from patients in the SAF001 study to explore the relationships between the systemic exposure and safety endpoints, including the adverse events (AEs) of interest. In these studies, the SAF-189s plasma concentrations were analyzed using validated liquid chromatography tandem mass spectrometry within the assay range of 0.5–150 ng mL^–1.

[4] = system: efflux transporter P-gp; conditions: in vitro studies, no reference given; cited from earlier work
[5] = previous NCA results, no reference given, cited from earlier work

## Cc1cc(Nc2ncc(Cl)c(Nc3ccccc3S(=O)(=O)C(C)C)n2)c2c(c1C1CCN(C)CC1)C[C@@H](C)O2 [SAF-189s]
[1]; p < 0.001
  OR for any-grade hyperglycemia: 3.521
  OR for grade ≥2 hyperglycemia: 7.662
[1]; p = 0.021
  OR for proteinuria: 2.031
[2]
  antitumor effects: Strong antitumor effects
[3]; 160-mg dose group, ROS1+ treatment-naive patients (n = 59)
  ORR: 89.83%
[3]; ALK+ and ROS1+ patients (n = 244)
  ORR: 78.69%
[3]; ROS1+ treatment-naive subgroup (n = 68)
  ORR: 91.18%
[3]; ROS1+ treatment-resistant patients (n = 32)
  ORR: 40.62%
[4]
  P-gp inhibitor: inhibitor
  P-gp substrate: substrate
[5]; after multiple doses at 20 mg once daily
  apparent clearance (CL/F): 132 L h^–1
[5]; after multiple doses at 210 mg once daily
  apparent clearance (CL/F): 58.3 L h^–1
